Target: T1, PLEKHA7 PH-domain (Homo sapiens, UniProt Q6IQ23)
T1 construct: The plekstrin homology domain of CNK and PLEKHA7 expressed with GST at the N-terminus; made in house
T1 sequence (Q6IQ23 164-282 limits assumed): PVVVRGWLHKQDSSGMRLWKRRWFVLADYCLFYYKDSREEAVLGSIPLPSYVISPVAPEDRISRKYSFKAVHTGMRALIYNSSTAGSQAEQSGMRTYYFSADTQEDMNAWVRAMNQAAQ
Assay: Surface plasmon resonance binding to PLEKHA7 PH-domain
Conditions: SPR; read-out: PLEK KD
Experimental: The plekstrin homology domain of CNK and PLEKHA7 expressed with GST at the N-terminus, CNK(PH)-GST were immobilized on a CM5 chip. Analysis of potential small molecule drug binding was done using a Biacore T200. Immobilization of antibody was run at 37° C. and a flow rate of 5 μL/min. A freshly prepared mixture of aqueous 0.4M 1-ethyl-3-(3-dimethylaminopropyl)carbodiimide hydrochloride (EDC) and aqueous 0.1M N-hydroxysuccinamide (NETS), (0.2M/0.05M EDC/NHS solution) is injected for 480 seconds over a conditioned (Tanious, et al doi:10.1016/50091-679X(07)84003-9) CM5 chip flow cell. The activated surface is then injected at 37° C., flow rate of 5 μL/min for 480 sec with 30 μg/mL anti-GST antibody, freshly suspended in pH 5.0 10 mM acetate buffer. Expected capture is 12000-20000 response units (RU). The remaining active surface is deactivated with 480 sec injections of 0.1M ethylenediamine in borate buffer (GE Healthcare) and then 1M ethanolamine pH 8.5 to provide 10000-18000 RU of covalently linked antibody on the flow cell. An upstream reference flow cell (Fc1) and a downstream working flow cell (Fc2) are prepared in this manner. […] Binding responses were determined 4 seconds prior to the conclusion of the injection. […]

Work on CCOC(=O)/C=C/c1cc(NS(=O)(=O)c2cccs2)c2c(c1O)OCO2 [Compound 88, (E)-ethyl 3-(4-hydroxy-7-(thiophene-2-sulfonamido)benzo[d][1,3]dioxol-5-yl)acrylate] yielded a Kd of 261 µM.

From US10227356B2, “Compounds, compositions and methods for inhibiting CNKSR1” (Phusis Therapeutics, Inc., priority 2015, dated 2019)
